Measured values as given in the supplement of paper PMC10307832.

Each cell line was assayed with c1ccc2c(CCNc3ccc(Nc4ccncc4)cc3)c[nH]c2c1 [Serdemetan] + CC1(C)CCC(c2ccc(Cl)cc2)=C(CN2CCN(c3ccc(C(=O)NS(=O)(=O)c4ccc(N[C@H](CCN5CCOCC5)CSc5ccccc5)c(S(=O)(=O)C(F)(F)F)c4)cc3)CC2)C1 [Navitoclax] (partner 0.5 µM) (assay: relative viability (nuclei count vs DMSO), 5 days (fraction); higher = more cells survive). Details: first compound 0.04 µM.
Method in brief: (§1)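 Each reported value is a median over duplicate plates. It expresses relative viability: treated-well nuclei count divided by vehicle-well nuclei count. Lung cancer cell lines in 1536-well plates were dosed by pin tool a day after seeding, alone with one drug or with a fixed anchor-drug dose plus five library-drug doses (not always all listed) in √10 steps, and nuclei were counted after 5 days.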

Cell Line	relative viability
NCI-H1437	1.06
NCI-H1755	0.973
NCI-H2023	0.929
HCC-15	0.755
NCI-H1793	0.337
PC-14	0.977
EKVX	0.862
LC-2-ad	0.5
NCI-H1944	1.07
NCI-H1975	1.01
RERF-LC-KJ	1.15
PC-3 [JPC-3]	0.747

Same assay, conditions: first compound 0.1265 µM

Cell Line	relative viability
NCI-H1437	1.01
NCI-H1755	0.976
NCI-H2023	1.05
HCC-15	0.729
NCI-H1793	0.408
PC-14	0.974
EKVX	0.888
LC-2-ad	0.418
NCI-H1944	1.04
NCI-H1975	0.998
RERF-LC-KJ	0.842
PC-3 [JPC-3]	0.713

Same assay, conditions: first compound 0.4 µM

Cell Line	relative viability
NCI-H1437	0.99
NCI-H1755	0.867
NCI-H2023	0.99
HCC-15	0.624
NCI-H1793	0.39
PC-14	0.954
EKVX	0.973
LC-2-ad	0.427
NCI-H1944	0.978
NCI-H1975	1.2
RERF-LC-KJ	1.06

Same assay, conditions: first compound 1.265 µM

Cell Line	relative viability
NCI-H1437	0.98
NCI-H1755	0.527
NCI-H2023	0.682
HCC-15	0.56
NCI-H1793	0.349
PC-14	0.923
EKVX	0.791
NCI-H1975	1.05
RERF-LC-KJ	0.805
PC-3 [JPC-3]	0.76

Same assay, conditions: first compound 4 µM

Cell Line	relative viability
NCI-H1437	0.754
NCI-H1755	0.448
NCI-H2023	0.344
HCC-15	0.504
NCI-H1793	0.263
PC-14	0.697
EKVX	0.91
LC-2-ad	0.293
NCI-H1944	0.376
NCI-H1975	1.24
RERF-LC-KJ	0.983
PC-3 [JPC-3]	0.762

The cell lines below were run with c1ccc2c(CCNc3ccc(Nc4ccncc4)cc3)c[nH]c2c1 [Serdemetan] + Nc1nc2[nH]cc(CCc3ccc(C(=O)N[C@@H](CCC(=O)O)C(=O)O)cc3)c2c(=O)[nH]1 [Pemetrexed] (partner 0.2 µM) in the same assay as above. Details: first compound 0.04 µM.
Method in brief: as §1

Cell Line	relative viability
NCI-H1437	0.287
NCI-H1755	0.575
NCI-H2023	0.213
HCC-15	0.216
NCI-H1793	0.864
PC-14	0.133
EKVX	0.335
LC-2-ad	0.255
NCI-H1944	0.581
NCI-H1975	0.279
RERF-LC-KJ	0.455
PC-3 [JPC-3]	1.12

Same assay, conditions: first compound 0.1265 µM

Cell Line	relative viability
NCI-H1437	0.327
NCI-H1755	0.4
NCI-H2023	0.223
HCC-15	0.195
NCI-H1793	0.831
PC-14	0.139
EKVX	0.401
LC-2-ad	0.231
NCI-H1944	0.599
NCI-H1975	0.3
RERF-LC-KJ	0.456
PC-3 [JPC-3]	1.07

Same assay, conditions: first compound 0.4 µM

Cell Line	relative viability
NCI-H1437	0.316
NCI-H1755	0.539
NCI-H2023	0.227
HCC-15	0.215
NCI-H1793	0.616
LC-2-ad	0.269
NCI-H1944	0.741
NCI-H1975	0.312
RERF-LC-KJ	0.452
PC-3 [JPC-3]	0.991

Same assay, conditions: first compound 1.265 µM

Cell Line	relative viability
NCI-H1437	0.264
NCI-H1755	0.512
NCI-H2023	0.206
HCC-15	0.226
NCI-H1793	0.419
PC-14	0.137
LC-2-ad	0.255
NCI-H1944	0.469
NCI-H1975	0.309
RERF-LC-KJ	0.475
PC-3 [JPC-3]	0.829

Same assay, conditions: first compound 4 µM

Cell Line	relative viability
NCI-H1437	0.252
NCI-H1755	0.418
NCI-H2023	0.217
HCC-15	0.213
NCI-H1793	0.431
PC-14	0.143
EKVX	0.376
LC-2-ad	0.267
NCI-H1944	0.476
NCI-H1975	0.295
RERF-LC-KJ	0.49
PC-3 [JPC-3]	1.05

Each cell line was assayed with c1ccc2c(CCNc3ccc(Nc4ccncc4)cc3)c[nH]c2c1 [Serdemetan] + COc1cc2c(Oc3ccc(NC(=O)C4(C(=O)Nc5ccc(F)cc5)CC4)cc3F)ccnc2cc1OCCCN1CCOCC1 [Foretinib] (partner 0.25 µM) in the same assay as above. Details: first compound 0.04 µM.
Method in brief: as §1

Cell Line	relative viability
NCI-H1437	1.31
NCI-H1755	0.901
NCI-H2023	0.804
HCC-15	1
NCI-H1793	0.663
PC-14	0.862
EKVX	1
LC-2-ad	0.883
NCI-H1944	0.832
NCI-H1975	0.866
RERF-LC-KJ	0.836
PC-3 [JPC-3]	0.98

Same assay, conditions: first compound 0.1265 µM

Cell Line	relative viability
NCI-H1437	1.19
NCI-H1755	0.934
NCI-H2023	0.795
HCC-15	0.993
NCI-H1793	0.716
PC-14	0.939
EKVX	0.82
LC-2-ad	0.943
NCI-H1944	0.836
NCI-H1975	0.849
RERF-LC-KJ	0.884
PC-3 [JPC-3]	1

Same assay, conditions: first compound 0.4 µM

Cell Line	relative viability
NCI-H1437	1.27
NCI-H1755	0.846
NCI-H2023	0.689
HCC-15	0.944
NCI-H1793	0.446
PC-14	0.376
EKVX	0.424
LC-2-ad	0.831
NCI-H1944	0.828
NCI-H1975	0.982
RERF-LC-KJ	0.786
PC-3 [JPC-3]	0.946

Same assay, conditions: first compound 1.265 µM

Cell Line	relative viability
NCI-H1437	1.08
NCI-H1755	0.674
NCI-H2023	0.653
HCC-15	0.854
NCI-H1793	0.363
PC-14	0.83
LC-2-ad	0.748
NCI-H1944	0.406
RERF-LC-KJ	0.79
PC-3 [JPC-3]	1.09

Same assay, conditions: first compound 4 µM

Cell Line	relative viability
NCI-H1437	0.963
NCI-H1755	0.599
NCI-H2023	0.267
HCC-15	0.707
NCI-H1793	0.245
PC-14	1.1
EKVX	0.858
LC-2-ad	0.86
NCI-H1944	0.392
NCI-H1975	0.987
RERF-LC-KJ	0.887
PC-3 [JPC-3]	1.06

The cell lines below were run with C1CC(C2=C(C1)C3=C(N2)C=CC(=C3)Cl)C(=O)N [Selisistat] + CC1(C)CCC(c2ccc(Cl)cc2)=C(CN2CCN(c3ccc(C(=O)NS(=O)(=O)c4ccc(N[C@H](CCN5CCOCC5)CSc5ccccc5)c(S(=O)(=O)C(F)(F)F)c4)cc3)CC2)C1 [Navitoclax] (partner 0.5 µM) in the same assay as above. Details: first compound 0.4 µM.
Method in brief: as §1

Cell Line	relative viability
NCI-H1437	1.13
NCI-H1755	1.08
NCI-H2023	1.03
HCC-15	0.778
NCI-H1793	0.446
PC-14	0.963
EKVX	0.905
LC-2-ad	0.514
NCI-H1944	1.1
NCI-H1975	1.08
RERF-LC-KJ	0.812
PC-3 [JPC-3]	0.753

Same assay, conditions: first compound 1.265 µM

Cell Line	relative viability
NCI-H1437	1.1
NCI-H1755	1.08
NCI-H2023	0.986
HCC-15	0.737
NCI-H1793	0.326
PC-14	1.04
EKVX	0.918
LC-2-ad	0.475
NCI-H1944	0.998
NCI-H1975	0.913
RERF-LC-KJ	1.1
PC-3 [JPC-3]	0.741

Same assay, conditions: first compound 4 µM

Cell Line	relative viability
NCI-H1437	1.1
NCI-H1755	1
NCI-H2023	0.989
PC-14	1.03
EKVX	0.745
LC-2-ad	0.507
NCI-H1975	1.05
RERF-LC-KJ	0.84
PC-3 [JPC-3]	0.746

Same assay, conditions: first compound 12.65 µM

Cell Line	relative viability
NCI-H1437	1.01
NCI-H1755	0.99
NCI-H2023	0.948
HCC-15	0.756
NCI-H1793	0.472
PC-14	1.04
EKVX	0.874
LC-2-ad	0.485
NCI-H1944	1.04
NCI-H1975	0.982
RERF-LC-KJ	0.702
PC-3 [JPC-3]	0.696

Same assay, conditions: first compound 40 µM

Cell Line	relative viability
NCI-H1437	0.919
NCI-H1755	1.06
NCI-H2023	0.92
HCC-15	0.742
NCI-H1793	0.545
PC-14	1.07
EKVX	0.945
LC-2-ad	0.561
NCI-H1944	0.927
NCI-H1975	0.976
RERF-LC-KJ	0.627
PC-3 [JPC-3]	0.776
